# Like-named read-outs stand apart in the source and are kept apart here.
# Assays:
# HRV-14 = assay: Antirhinoviral HI-HeLa Cell Culture Assay (Cell Protection Assay, XTT dye reduction); format: cell-based, human rhinovirus (HRV) serotype-14; conditions: HI-HeLa cells infected with HRV-14, m.o.i. 0.13, two days, XTT, read-out: EC50
# Outline: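 Protection measured via XTT dye reduction (450/650 nm) two days after compound treatment of HI-HeLa cells, mock-infected or infected with cDNA-derived HRV-14 at m.o.i. 0.13. CC50 divided by EC50 gives the therapeutic index.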
# [1] = test system: Human Rhinovirus-serotype 10 (HRV-10); assay: Normal Human Bronchial Epithelial Cell Assay (MTT); format: cell-based; conditions: normal human bronchial cells, HRV-10 at m.o.i. 10, 3-4 days at 34° C., read-out: ED50 (the source's name)
# Procedure: Normal human bronchial cells were obtained from cadavers and cultured. The cells were plated at 2×10^4 per well in a […] plate. They were allowed to adhere and grow for 24 hours in 200 μL of serum-free bronchial/tracheal epithelial cell growth medium at 37° C. with 5% CO2. Human Rhinovirus-serotype 10 (HRV-10) was purchased from American Type Culture Collection (ATCC). To start the assay, the supernatant was removed, and HRV-10 at an m.o.i. of 10 (virus particles/cell) was added to each well along with the appropriate amount of compound of formula I or II. The plate was then incubated at 34° C. After 3 hours the supernatant was removed, and 200 μL of media was added along with the same concentration of compound as used in the beginning of the assay. The plates were incubated for 3-4 days at 34° C. To determine the amount of cell growth, an MTT assay (0.5 mgs/mL), as described in Mosmann, T. J. J. Immunol. Methods 1983, 65, 55-63, which is incorporated herein by reference, was performed on the cells, and the plate was read at an optical density of 540 nm. The compounds were tested against control compound Pirodavir, obtained from Janssen Pharmaceuticals. The EC50 was measured as described above for the HI-HeLa Cell Culture Assay.
# CVB-3 = assay: Anticoxsackieviral HI-HeLa Cell Culture Assay (XTT dye reduction); format: cell-based, Coxsackie strain B-3 (CVB-3); conditions: HI-HeLa cells infected with CVB-3, m.o.i. 0.08, one day
# Procedure: (§1) Specifically, HI-HeLa cells were infected wtih […] at a multiplicity of infection (m.o.i.) of 0.08 or mock-infected with medium only. Infected or mock-infected cells were resuspended at 8×10^5 cells per mL and incubated with appropriate concentrations of compound. One day later, XTT/PMS were added to test plates and the amount of formazan produced was quantified spectrophotometrically at 450/650 nm. […] The therapeutic index (TI) was calculated by dividing the CC50 by the EC50.
# (§2) The Coxsackie strain B-3 (CVB-3) was purchased from American Type Culture Collection (ATCC). Virus stocks were propgated and antiviral assays were performed in Hi-HeLa cells (ATCC). Cells were grown in Minimal Essential Medium with 10% fetal bovine serum.
# HI-HeLa cells [2] = assay: Cytotoxicity in mock-infected HI-HeLa cells (anticoxsackieviral assay, XTT); format: cell-based
# Procedure: as §1, with “The ability of compounds to protect calls against CVB-3 infection was measured by the XTT dye reduction method, which is described in Weislow, O. S., R. Kiser, D. L. Fine, J. Bader, R. H. Shoemaker, and M. R. Boyd, 1989, J. Natl. Cancer Inst. 81:577-586, which is incorporated herein by reference. Specifically,” for “Specifically,”
# as §2
# [3] = molecular target: T1, Recombinant Rhinovirus 3C protease (RVP) serotype 89 (Human rhinovirus A serotype 89, UniProt P07210); assay: Inhibition of Rhinovirus Protease (fluorescence resonance energy transfer assay), serotype 89; format: biochemical, human rhinovirus (HRV); conditions: progress curves in enzyme start experiments
# T1 construct: Recombinant Rhinovirus 3C proteases from serotypes 14, 16, 2 or 89; made in house
# T1 sequence (P07210 1522-1704): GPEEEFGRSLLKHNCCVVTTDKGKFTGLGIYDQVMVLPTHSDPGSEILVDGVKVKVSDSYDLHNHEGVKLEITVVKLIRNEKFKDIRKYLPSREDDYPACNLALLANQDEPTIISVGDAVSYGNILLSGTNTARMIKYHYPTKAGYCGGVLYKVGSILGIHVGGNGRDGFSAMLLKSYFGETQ
# Procedure: (§3) Stock solution (50 mM, in DMSO) of various compounds were prepared; dilutions were in the same solvent. Recombinant Rhinovirus 3C proteases from serotypes 14, 16, 2 or 89 were prepared by the following standard chromatographic procedures: (1) ion exchange using Q Sepharose Fast Flow from Pharmacia; (2) affinity chromatography using Affi-Gel Blue from Biorad; and (3) sizing using Sephadex G-100 from Pharmacia. Assays contained 2% DMSO, 50 mM tris pH 7.6, 1 mM EDTA, a compound at the indicated concentrations, approximately 1 μM substrate, and 50-100 nM protease. […] The kobs/I values were obtained from reactions initiated by addition of enzyme rather than substrate. RVP activity is measured in the fluorescence resonance energy transfer assay. The substrate was (N-terminal) DABCYL-([…]Gyl)-EDANS. In the uncleaved peptide, the EDANS fluorescence was quenched by the proximal DABCYL moeity. When the peptide was cleaved, the quenching was relieved, and activity was measured as an increase in fluorescence signal.
# In the above table, all data is RVP serotype-14 unless otherwise noted in parentheses. […] The data in the column designated kobs/I was measured from progress curves in enzyme start experiments.
# HI-HeLa cells [4] = assay: Cytotoxicity in mock-infected HI-HeLa cells (antirhinoviral assay, XTT); format: cell-based
# [5] = molecular target: T2, Recombinant Rhinovirus 3C protease (RVP) serotype-14 (Human rhinovirus 14, UniProt P03303); assay: Inhibition of Rhinovirus Protease (fluorescence resonance energy transfer assay), serotype 14; format: biochemical, human rhinovirus (HRV); conditions: for INHIB (percent inhibition): 10 minute preincubation with 50 nM RVP; for kobs/I: progress curves in enzyme start experiments; for kinact/KI: pH 7.6, read-out: kobs/I
# T2 construct: Recombinant Rhinovirus 3C proteases from serotypes 14, 16, 2 or 89; made in house
# T2 sequence (P03303 1538-1719): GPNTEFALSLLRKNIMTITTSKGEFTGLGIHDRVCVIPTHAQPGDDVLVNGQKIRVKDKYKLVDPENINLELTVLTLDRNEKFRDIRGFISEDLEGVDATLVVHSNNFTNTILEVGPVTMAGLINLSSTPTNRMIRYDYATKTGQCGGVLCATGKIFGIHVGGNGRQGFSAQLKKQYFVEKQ
# [6] = molecular target: T3, Recombinant Rhinovirus 3C protease (RVP) serotype 2 (Human rhinovirus 2, UniProt P04936); assay: Inhibition of Rhinovirus Protease (fluorescence resonance energy transfer assay), serotype 2; format: biochemical, human rhinovirus (HRV); conditions: progress curves in enzyme start experiments
# T3 construct: Recombinant Rhinovirus 3C proteases from serotypes 14, 16, 2 or 89; made in house
# T3 sequence (P04936 1508-1690): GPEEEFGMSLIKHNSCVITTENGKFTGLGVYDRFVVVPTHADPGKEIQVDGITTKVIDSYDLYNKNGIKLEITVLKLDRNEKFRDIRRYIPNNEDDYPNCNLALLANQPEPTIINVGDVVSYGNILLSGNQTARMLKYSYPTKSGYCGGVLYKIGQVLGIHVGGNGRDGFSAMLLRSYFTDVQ
# Procedure: as §3
# In the above table, all data is RVP serotype-14 unless otherwise noted in parentheses. All strains of human rhinovirus (HRV) were purchased from American Type Culture Collection (ATCC), except for serotype 14, which was produced from the infectious cDNA clone constructed and supplied to us by Dr. Roland Rueckert at the Institute for Molecular Virology, University of Wisconsin, Madison, Wisc. […] The data in the column designated kobs/I was measured from progress curves in enzyme start experiments.
# [7] = Cytotoxicity in mock-infected HI-HeLa cells (antirhinoviral assay, XTT); format: cell-based; conditions: human
# [8] = Cytotoxicity in mock-infected HI-HeLa cells (anticoxsackieviral assay, XTT); format: cell-based; conditions: human; mock-infected HI-HeLa cells; one day; XTT
# Procedure: as §1, with “The ability of compounds to protect calls against CVB-3 infection was measured by the XTT dye reduction method, which is described in Weislow, O. S., R. Kiser, D. L. Fine, J. Bader, R. H. Shoemaker, and M. R. Boyd, 1989, J. Natl. Cancer Inst. 81:577-586, which is incorporated herein by reference. Specifically,” for “Specifically,”
# as §2
# [9] = mock-infected HI-HeLa cells, two days, XTT, read-out: CC50
# [10] = mock-infected HI-HeLa cells, one day, XTT, read-out: CC50
# [11] = RVP serotype-14, 10 minute preincubation, substrate start, read-out: INHIB (Ki)
Molecule,EC50 (HRV-14),EC50 [1],EC50 (CVB-3),CC50 (HI-HeLa cells [4]),kobs/I ([5]; RVP serotype-14),"EC50 (HRV-14; Rhinovirus B, HRV14, 48 h)","CC50 at 2 days [7, 9]",Ki [5],kinact/KI [5],CC50 (HI-HeLa cells [2]; [10]),also measured
"CCOC(=O)/C=C/[C@H](CCC(N)=O)NC(=O)[C@H](Cc1ccccc1)NC(=O)[C@H](CC(C)C)NC(=O)OCc1ccccc1 [Compound 3, Ethyl-3-(CBZ-L-Leu-L-Phe-L-Gln)-E-Propenoate]",0.61 µM,40 nM,39.8 µM,> 320 µM,"37,000 M-1 sec-1",–,–,–,–,–,"CC50 (HI-HeLa cells [2]): > 320 µM; kobs/I [3]: 3,400 M-1 sec-1; INHIB (percent inhibition) ([5]; RVP serotype-14, 0.1 μM compound): 81(0.1) percent; kobs/I [6]: 1,900 M-1 sec-1"
"CCOC(=O)/C=C/[C@H](CNC(C)=O)NC(=O)[C@H](Cc1ccccc1)NC(=O)[C@H](CC(C)C)NC(=O)OCc1ccccc1 [Compound 4, Ethyl-3-[CBZ-L-Leu-L-Phe-L-(N-Ac-amino)-Ala]-E-Propenoate]",2.2 µM,150 nM,–,> 320 µM,790 M⁻¹ s⁻¹,–,–,–,–,–,"INHIB (percent inhibition) ([5]; RVP serotype-14, 0.5 μM compound): 49(0.5) percent"
"CCOC(=O)/C(F)=C\[C@H](CCC(N)=O)NC(=O)[C@H](Cc1ccccc1)NC(=O)[C@H](CC(C)C)NC(=O)OCc1ccccc1 [Compound 8, Ethyl-2-Fluoro-3-(CBZ-L-Leu-L-Phe-L-Gln)-E-Propenoate]",–,–,–,–,–,> 320 µM,> 320 µM,36 µM,61 M⁻¹ s⁻¹,–,melting point: 210 to 211 °C
"COC(=O)/C=C/[C@H](CCC(N)=O)NC(=O)[C@H](Cc1ccccc1)NC(=O)[C@H](CC(C)C)NC(=O)OCc1ccccc1 [Compound 11, Methyl-3-(CBZ-L-Leu-L-Phe-L-Gln)-E-Propenoate]",1.3 µM,0.7 nM,8.9 µM,> 320 µM,"20,000 M-1 sec-1",–,–,–,–,> 320 µM,"Ki [5, 11]: 28 µM"
"CCOC(=O)/C=C/[C@H](CC[S+](C)[O-])NC(=O)[C@H](Cc1ccccc1)NC(=O)[C@H](CC(C)C)NC(=O)OCc1ccccc1 (stereo partly drawn) [Compound 12, Ethyl-3-[CBZ-L-Leu-L-Phe-L-Met(sulfoxide)]-E-propenoate]",–,–,–,–,–,1.6 µM,> 100 µM,4.3 µM,2200 M⁻¹ s⁻¹,–,EC50 ([1]; Epithelial cell): 4 nM
"CC(C)C[C@H](NC(=O)OCc1ccccc1)C(=O)N[C@@H](Cc1ccccc1)C(=O)N[C@H](/C=C/C(=O)N1CCCC1)CCC(N)=O [Compound 21, 1-Pyrrolidin-1-yl-3-(CBZ-L-Leu-L-Phe-L-Gln)-E-Propenone]",–,–,–,–,–,22.4 µM,> 100 µM,9.9 µM,2100 M⁻¹ s⁻¹,–,EC50 (CVB-3; 24 h): 158 µM; CC50 at 1 day [8]: > 320 µM
"CC(C)C[C@H](NC(=O)OCc1ccccc1)C(=O)N[C@@H](Cc1ccccc1)C(=O)N[C@H](/C=C/C(=O)N(C)C)CCC(N)=O [Compound 22, N,N-Dimethyl-3-(CBZ-L-Leu-L-Phe-L-Gln)-E-Propenamide]",–,–,–,–,–,56.2 µM,251 µM,4.3 µM,1300 M⁻¹ s⁻¹,–,melting point: 174 to 175 °C (dec.)
CC(C)C[C@H](NC(=O)OCc1ccccc1)C(=O)N[C@@H](Cc1ccccc1)C(=O)N[C@H](/C=C/c1ccccn1)CCC(N)=O [Compound 23],> 100 µM,–,> 100 µM,–,120 M⁻¹ s⁻¹,–,–,–,–,> 100 µM,"CC50 (HI-HeLa cells [4]; [9]): > 100 µM; Ki [5, 11]: 177 µM"
"CC(C)C[C@H](NC(=O)OCc1ccccc1)C(=O)N[C@@H](Cc1ccccc1)C(=O)N[C@H](/C=C/C(=O)c1ccccc1)CCC(N)=O [Compound 24, 1-Phenyl-3-(CBZ-L-Leu-L-Phe-L-Gln)-E-Propenone]",4 µM,–,10 µM,–,"500,000 M-1 sec-1",–,–,–,–,10 µM,CC50 (HI-HeLa cells [4]; [9]): 16 µM
CCOC(=O)/C=C/[C@H](CCC(N)=O)NC(=O)[C@H](Cc1ccc(F)cc1)NC(=O)c1cc2c(OC)cccc2[nH]1 [Compound 27],3.5 µM,70 nM,20 µM,–,"3,000 M-1 sec-1",–,–,–,–,103 µM,"CC50 (HI-HeLa cells [4]; [9]): 160 µM; Ki [5, 11]: 20 µM"
CON(C)C(=O)/C=C/[C@H](CCC(N)=O)NC(=O)[C@H](Cc1ccccc1)NC(=O)[C@H](CC(C)C)NC(=O)OCc1ccccc1 [Compound 37],–,–,–,–,–,4 µM,> 100 µM,18.8 µM,5900 M⁻¹ s⁻¹,–,EC50 (CVB-3; 24 h): 17.8 µM; CC50 at 1 day [8]: > 100 µM
CC(C)C[C@H](NC(=O)OCc1ccccc1)C(=O)N[C@@H](Cc1ccccc1)C(=O)N[C@H](/C=C/C(=O)N1CC=CC1)CCC(N)=O [Compound 41],56 µM,–,> 100 µM,56 µM,"8,464 M-1 sec-1",–,–,–,–,–,CC50 (HI-HeLa cells [2]): > 100 µM
CC(C)C[C@H](NC(=O)OCc1ccccc1)C(=O)N[C@@H](Cc1ccccc1)C(=O)N[C@H](/C=C/C(=O)N1CCc2ccccc21)CCC(N)=O [Compound 85],–,–,–,–,–,16 µM,> 320 µM,3 µM,6500 M⁻¹ s⁻¹,–,EC50 ([1]; Epithelial cell): 5 nM
"CCOC(=O)c1ccc(OCCC2CCN(c3ccc(C)nn3)CC2)cc1 [Pirodavir, reference compound]",–,–,–,–,–,0.03 µM,–,–,–,–,EC50 ([1]; Epithelial cell): 7.5 nM; EC50 (CVB-3; 24 h): > 100 µM; CC50 at 1 day [8]: > 100 µM; CC50 at 2 days [7]: > 10 µM
"Cc1cc(CCCCCOc2c(Cl)cc(C3=NCCO3)cc2Cl)on1 [WIN 54954, reference compound]",2.13 µM,–,> 100 µM,–,–,–,–,–,–,> 100 µM,CC50 (HI-HeLa cells [4]; [9]): > 63 µM
Ethyl-3-[CBZ-L-Leu-L-Phe-L-[N-(2-pyrrolidinone)]-Ala]-E-Propenoate [Compound 5],1.6 µM,1 nM,–,251 µM,221 M⁻¹ s⁻¹,–,–,–,–,–,"Ki [5, 11]: 7.1 µM"

# — patent publication US6362166B1, “Antipicornaviral compounds and methods for their use and preparation” (Agouron Pharmaceuticals, Inc., priority 1996, dated 2002)
